The structures appear in SMILES notation.

In one series the target is D(3) dopamine receptor (Homo sapiens, UniProt P35462). The series is described as follows: Antagonist activity at dopamine D3 receptor assessed as inhibition of dopamine-induced [35S]GTPgammaS binding […]. In kind it is functional.
A further series addresses D(2) dopamine receptor (Homo sapiens, UniProt P14416). Description: Antagonist activity at dopamine D2 receptor assessed as inhibition of dopamine-induced [35S]GTPgammaS binding […]. In kind it is functional.
The next series concerns the target T1, Cytochrome P450 1A2 (Homo sapiens, UniProt P05177).
T1 sequence (P05177 whole entry): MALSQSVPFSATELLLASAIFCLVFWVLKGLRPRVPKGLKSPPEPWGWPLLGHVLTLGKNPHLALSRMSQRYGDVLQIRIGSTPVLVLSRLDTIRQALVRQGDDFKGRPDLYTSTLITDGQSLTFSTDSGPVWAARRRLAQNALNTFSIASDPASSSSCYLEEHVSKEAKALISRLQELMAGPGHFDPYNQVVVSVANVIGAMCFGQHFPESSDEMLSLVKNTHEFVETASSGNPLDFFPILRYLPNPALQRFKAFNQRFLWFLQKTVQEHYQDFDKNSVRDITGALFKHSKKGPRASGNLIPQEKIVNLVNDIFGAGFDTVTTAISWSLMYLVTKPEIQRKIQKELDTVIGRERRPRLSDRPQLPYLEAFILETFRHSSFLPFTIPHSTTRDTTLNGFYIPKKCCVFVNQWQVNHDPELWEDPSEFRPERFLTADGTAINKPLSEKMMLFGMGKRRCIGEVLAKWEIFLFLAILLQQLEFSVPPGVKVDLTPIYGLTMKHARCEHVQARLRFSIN
Description: Inhibition of CYP1A2. In kind it is ADME.

The next series deals with Cytochrome P450 2C9 (Homo sapiens, UniProt P11712). The series is described as follows: Inhibition of CYP2C9. In kind it is ADME.
Sequence of Cytochrome P450 2C9 (P11712 whole entry): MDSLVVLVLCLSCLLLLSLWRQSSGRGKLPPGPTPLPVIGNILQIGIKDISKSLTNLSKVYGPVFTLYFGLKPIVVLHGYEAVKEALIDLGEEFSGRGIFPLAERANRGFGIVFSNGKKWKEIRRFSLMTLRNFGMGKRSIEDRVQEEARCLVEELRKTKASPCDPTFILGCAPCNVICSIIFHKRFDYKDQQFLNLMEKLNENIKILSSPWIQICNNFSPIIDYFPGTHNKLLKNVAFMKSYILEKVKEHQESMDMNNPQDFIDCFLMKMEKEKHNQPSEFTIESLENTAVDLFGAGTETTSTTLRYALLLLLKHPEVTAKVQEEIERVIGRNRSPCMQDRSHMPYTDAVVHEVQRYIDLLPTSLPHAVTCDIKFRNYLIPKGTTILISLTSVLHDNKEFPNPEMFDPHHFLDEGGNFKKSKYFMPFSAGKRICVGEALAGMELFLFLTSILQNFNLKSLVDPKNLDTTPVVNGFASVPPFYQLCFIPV
The target of a further series is Cytochrome P450 2C19 (Homo sapiens, UniProt P33261). The series is described as follows: Inhibition of CYP2C19. Format: ADME.
Sequence of Cytochrome P450 2C19 (P33261 whole entry): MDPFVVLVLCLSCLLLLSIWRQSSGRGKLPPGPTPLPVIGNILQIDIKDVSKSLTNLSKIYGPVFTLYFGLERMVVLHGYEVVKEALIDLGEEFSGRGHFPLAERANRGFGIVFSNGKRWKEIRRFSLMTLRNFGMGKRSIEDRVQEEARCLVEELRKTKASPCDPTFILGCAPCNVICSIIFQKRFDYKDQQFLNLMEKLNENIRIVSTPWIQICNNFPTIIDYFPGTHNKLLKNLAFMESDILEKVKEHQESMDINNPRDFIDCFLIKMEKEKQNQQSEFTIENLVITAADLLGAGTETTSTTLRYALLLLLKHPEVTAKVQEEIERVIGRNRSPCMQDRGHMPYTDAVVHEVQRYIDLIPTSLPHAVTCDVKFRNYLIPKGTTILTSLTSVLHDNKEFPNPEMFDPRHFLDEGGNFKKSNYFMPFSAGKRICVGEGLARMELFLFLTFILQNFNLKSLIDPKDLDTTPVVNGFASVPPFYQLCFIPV
The target of another series is Cytochrome P450 2D6 (Homo sapiens, UniProt P10635). Description: Inhibition of CYP2D6. Format: ADME.
Sequence of Cytochrome P450 2D6 (P10635 whole entry): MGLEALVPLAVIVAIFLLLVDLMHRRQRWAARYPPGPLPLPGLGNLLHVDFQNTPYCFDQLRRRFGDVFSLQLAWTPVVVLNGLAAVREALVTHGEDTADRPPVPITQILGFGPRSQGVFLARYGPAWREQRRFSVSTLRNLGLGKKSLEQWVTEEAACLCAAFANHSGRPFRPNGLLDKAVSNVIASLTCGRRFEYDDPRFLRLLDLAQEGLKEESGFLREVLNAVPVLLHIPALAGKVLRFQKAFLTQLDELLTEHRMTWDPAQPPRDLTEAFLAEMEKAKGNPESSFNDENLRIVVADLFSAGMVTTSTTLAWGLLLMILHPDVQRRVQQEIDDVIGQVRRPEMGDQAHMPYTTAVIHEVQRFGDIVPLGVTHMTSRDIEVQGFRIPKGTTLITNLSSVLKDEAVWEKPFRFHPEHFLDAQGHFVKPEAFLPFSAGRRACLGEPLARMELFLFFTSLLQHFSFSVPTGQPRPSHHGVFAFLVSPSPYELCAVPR
Series [1] has as its target T2, Cytochrome P450 3A4 (Homo sapiens, UniProt P08684). The series is described as follows: Inhibition of CYP3A4 using diethoxyfluorescein as substrate. Format: ADME.
The target of series [2] is T2, Cytochrome P450 3A4. The series is described as follows: Inhibition of CYP3A4 using 7-benzyloxyquinoline as substrate. Format: ADME.
The target in series [3] is Voltage-gated inwardly rectifying potassium channel KCNH2 (Homo sapiens, UniProt Q12809).
Sequence of Voltage-gated inwardly rectifying potassium channel KCNH2 (Q12809 whole entry): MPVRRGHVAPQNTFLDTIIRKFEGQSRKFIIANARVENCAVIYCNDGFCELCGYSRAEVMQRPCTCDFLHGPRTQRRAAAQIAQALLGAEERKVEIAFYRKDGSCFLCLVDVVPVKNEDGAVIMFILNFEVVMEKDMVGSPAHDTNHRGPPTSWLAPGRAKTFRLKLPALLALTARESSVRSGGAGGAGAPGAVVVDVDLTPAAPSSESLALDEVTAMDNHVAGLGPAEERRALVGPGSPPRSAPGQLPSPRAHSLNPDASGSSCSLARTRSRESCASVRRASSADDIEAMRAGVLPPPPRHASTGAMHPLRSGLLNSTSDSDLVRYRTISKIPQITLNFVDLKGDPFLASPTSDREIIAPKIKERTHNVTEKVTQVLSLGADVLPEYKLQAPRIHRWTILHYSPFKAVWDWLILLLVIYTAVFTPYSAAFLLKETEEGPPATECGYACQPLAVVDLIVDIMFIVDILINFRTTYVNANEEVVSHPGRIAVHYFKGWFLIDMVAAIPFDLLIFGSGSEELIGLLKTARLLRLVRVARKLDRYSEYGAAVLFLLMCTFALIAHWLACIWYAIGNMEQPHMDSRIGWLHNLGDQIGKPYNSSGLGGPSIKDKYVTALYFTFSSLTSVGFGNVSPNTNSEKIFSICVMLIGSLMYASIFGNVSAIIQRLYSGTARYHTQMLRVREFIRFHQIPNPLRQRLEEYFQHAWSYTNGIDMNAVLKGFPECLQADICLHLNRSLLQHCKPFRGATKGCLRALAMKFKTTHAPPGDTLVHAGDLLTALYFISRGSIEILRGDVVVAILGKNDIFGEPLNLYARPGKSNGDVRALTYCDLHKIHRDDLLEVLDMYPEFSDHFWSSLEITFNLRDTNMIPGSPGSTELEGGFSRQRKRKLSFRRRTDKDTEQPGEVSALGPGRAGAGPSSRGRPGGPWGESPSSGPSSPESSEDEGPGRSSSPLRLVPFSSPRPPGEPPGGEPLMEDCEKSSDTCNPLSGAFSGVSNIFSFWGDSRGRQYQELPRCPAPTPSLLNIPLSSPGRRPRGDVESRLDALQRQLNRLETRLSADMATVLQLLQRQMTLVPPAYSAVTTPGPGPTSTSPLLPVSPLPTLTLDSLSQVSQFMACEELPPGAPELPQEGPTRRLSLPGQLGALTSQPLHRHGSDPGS
Series [4] in a line: Blood clearance in rat. Format: ADME, organism-based. The note with it: whole blood.
Series [5] can be described thus: Tmax in rat. Format: ADME, organism-based. The following applies: in vivo.
The nature of series [6]: Ratio of drug level in brain to blood in rat. In kind it is ADME, tissue-based. The following applies: read-out: BBR.
Series [7] in a line: Half life in rat. Format: ADME, organism-based. The following applies: in vivo.
A short description of series [8]: Volume of distribution in rat. Format: ADME, organism-based. The note with it: in vivo.
Series [9] can be described thus: Bioavailability in rat. Format: ADME, organism-based. The following applies: in vivo.

T2 sequence (P08684 whole entry): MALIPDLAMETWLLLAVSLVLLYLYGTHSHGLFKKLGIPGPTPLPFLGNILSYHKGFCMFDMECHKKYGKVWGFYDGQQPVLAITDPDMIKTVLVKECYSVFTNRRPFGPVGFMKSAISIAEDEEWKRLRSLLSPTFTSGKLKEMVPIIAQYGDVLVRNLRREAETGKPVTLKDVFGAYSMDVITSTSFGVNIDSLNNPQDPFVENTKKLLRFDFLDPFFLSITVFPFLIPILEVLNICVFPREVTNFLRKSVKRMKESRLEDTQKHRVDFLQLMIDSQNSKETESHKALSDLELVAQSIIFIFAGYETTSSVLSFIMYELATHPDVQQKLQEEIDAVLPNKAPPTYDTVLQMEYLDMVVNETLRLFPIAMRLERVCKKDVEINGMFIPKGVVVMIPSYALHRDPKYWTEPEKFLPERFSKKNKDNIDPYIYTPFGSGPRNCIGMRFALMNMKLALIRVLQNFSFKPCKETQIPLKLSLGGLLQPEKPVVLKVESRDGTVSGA
Sequence of D(2) dopamine receptor (P14416 whole entry): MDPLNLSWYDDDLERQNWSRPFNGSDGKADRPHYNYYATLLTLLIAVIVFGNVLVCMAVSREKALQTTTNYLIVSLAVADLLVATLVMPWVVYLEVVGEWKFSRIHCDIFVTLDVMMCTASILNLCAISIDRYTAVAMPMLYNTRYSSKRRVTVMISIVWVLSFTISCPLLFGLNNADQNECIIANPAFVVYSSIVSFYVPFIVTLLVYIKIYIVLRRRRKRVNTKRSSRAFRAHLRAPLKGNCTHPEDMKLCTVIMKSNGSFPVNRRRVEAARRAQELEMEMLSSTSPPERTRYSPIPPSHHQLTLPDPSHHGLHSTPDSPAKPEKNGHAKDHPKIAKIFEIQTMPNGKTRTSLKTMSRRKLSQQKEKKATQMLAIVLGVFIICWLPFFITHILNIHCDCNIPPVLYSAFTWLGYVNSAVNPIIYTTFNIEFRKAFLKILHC
Sequence of D(3) dopamine receptor (P35462 whole entry): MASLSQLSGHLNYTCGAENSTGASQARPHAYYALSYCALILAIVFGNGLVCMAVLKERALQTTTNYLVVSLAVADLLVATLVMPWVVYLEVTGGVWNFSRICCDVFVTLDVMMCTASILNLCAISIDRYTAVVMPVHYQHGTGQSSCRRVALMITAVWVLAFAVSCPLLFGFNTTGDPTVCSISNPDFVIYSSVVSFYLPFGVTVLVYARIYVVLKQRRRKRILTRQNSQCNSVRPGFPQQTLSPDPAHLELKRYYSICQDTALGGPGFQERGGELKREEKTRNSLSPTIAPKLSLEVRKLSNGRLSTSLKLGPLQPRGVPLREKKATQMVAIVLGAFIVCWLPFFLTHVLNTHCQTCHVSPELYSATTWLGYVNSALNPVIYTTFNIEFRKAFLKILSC

Broadly, the Ki is the dissociation constant of the complex between target and ligand, obtained from inhibition or displacement. As usually defined, the IC50 is the concentration at which inhibition is half-maximal. A high value points to weaker potency in that assay. For the molecule `Cc1ncoc1-c1nnc(SCCCN2CC3CC3(c3cccc(S(F)(F)(F)(F)F)c3)C2)n1C` (single isomer, unassigned; 12), the figures for the Ki at D(3) dopamine receptor and at D(2) dopamine receptor were 0.000631 µM and 0.0316 µM, respectively. Also, the IC50 at Cytochrome P450 1A2 was over 10 µM; on Cytochrome P450 2C9, 2 µM; at Cytochrome P450 2C19, 3 µM; on Cytochrome P450 2D6, 2 µM; against Cytochrome P450 3A4 [1], over 10 µM; against Cytochrome P450 3A4 [2], over 10 µM. The molecule also had an IC50 in [3] of 1.26 µM.
In the case of `Cc1ncoc1-c1nnc(SCCCN2CC3CC3(c3ccc(S(F)(F)(F)(F)F)cc3)C2)n1C` (single isomer, unassigned), the Ki at D(3) dopamine receptor is 0.0126 µM; on D(2) dopamine receptor, 0.251 µM. Also, the IC50 on Cytochrome P450 1A2 was 7 µM; against Cytochrome P450 2C9 it was 9 µM; on Cytochrome P450 2C19, over 10 µM; on Cytochrome P450 2D6, over 10 µM; against Cytochrome P450 3A4 [1], over 10 µM; on Cytochrome P450 3A4 [2] it was over 10 µM.
For `Cc1ncoc1-c1nnc(SCCCN2CC3CC3(c3cccc(C(F)(F)F)c3)C2)n1C` (racemic), the IC50 on Cytochrome P450 1A2 was over 10 µM; on Cytochrome P450 2C9, over 10 µM; against Cytochrome P450 2C19, 5 µM; against Cytochrome P450 2D6, over 10 µM; against Cytochrome P450 3A4 [1], over 10 µM; against Cytochrome P450 3A4 [2], over 10 µM.
By clearance is commonly meant the volume of plasma or blood freed of the substance per unit of time. The low end stands for a low capacity for elimination, the high end for a high capacity for elimination. Broadly, the Tmax is the time at which the peak concentration occurs. The molecule `Cc1ncoc1-c1nnc(SCCCN2CC3CC3(c3ccc(C(F)(F)F)cc3)C2)n1C` (racemic) had a clearance in series [4] of 14 mL/min/kg. In series [5], the Tmax amounted to 1.5 h. The Kp in series [6] worked out at 2.3.
Consider `Cc1ncoc1-c1nnc(SCCCN2CC3CC3(c3cccc(S(F)(F)(F)(F)F)c3)C2)n1C` (single isomer, unassigned; 11), for which the Ki is 0.0158 µM on D(3) dopamine receptor and over 3.16 µM on D(2) dopamine receptor. In addition, the IC50 at Cytochrome P450 1A2 was over 10 µM; against Cytochrome P450 2C9 it was 2 µM; on Cytochrome P450 2C19, 4 µM; against Cytochrome P450 2D6, 5 µM; at Cytochrome P450 3A4 [1], over 10 µM; against Cytochrome P450 3A4 [2], over 10 µM. The same molecule gave an IC50 in series [3] of 2 µM.
`Cc1ncoc1-c1nnc(SCCCN2CC3CC3(c3cccc(S(F)(F)(F)(F)F)c3)C2)n1C` (racemic): the Ki on D(3) dopamine receptor was 0.00126 µM; on D(2) dopamine receptor, 0.126 µM. For the same molecule, the IC50 at Cytochrome P450 1A2 is over 10 µM; against Cytochrome P450 2C9, 4 µM; at Cytochrome P450 2C19, 9 µM; against Cytochrome P450 2D6 it was 3 µM; against Cytochrome P450 3A4 [1], over 10 µM; against Cytochrome P450 3A4 [2], over 10 µM. Also, the IC50 in series [3] is 1 µM.
On to `Cc1ncoc1-c1nnc(SCCCN2CC3CC3(c3ccc(S(F)(F)(F)(F)F)cc3)C2)n1C` (stereo in doubt; 8), for which the Ki on D(3) dopamine receptor was 0.001 µM; at D(2) dopamine receptor, 0.158 µM. For the same molecule, the IC50 against Cytochrome P450 1A2 was 8 µM; against Cytochrome P450 2C9, 9 µM; at Cytochrome P450 2C19 it was over 10 µM; against Cytochrome P450 2D6, over 10 µM; at Cytochrome P450 3A4 [1] it was over 10 µM; on Cytochrome P450 3A4 [2], over 10 µM.
By half-life is commonly meant the time in which the quantity being followed falls by half. A word on the Vd: it is a proportionality between amount in the body and measured concentration, not a real space. A high value points to wide distribution into tissue. What is called bioavailability is the share of a dose that reaches the circulation, judged against a reference dose that is usually intravenous. With `Cc1ncoc1-c1nnc(SCCCN2CC3CC3(c3ccc(S(F)(F)(F)(F)F)cc3)C2)n1C` (racemic), the Ki on D(2) dopamine receptor was 0.158 µM. In addition, the IC50 was over 10 µM at Cytochrome P450 1A2; 9 µM against Cytochrome P450 2C9; over 10 µM at Cytochrome P450 2C19; 8 µM against Cytochrome P450 2D6; over 10 µM on Cytochrome P450 3A4 [1]; over 10 µM at Cytochrome P450 3A4 [2]. Also, the clearance in [4] came out at 8 mL/min/kg. Further, in series [7], the half-life is 4.4 h. In [8], this molecule had a Vd of 2.8 L/kg. In [9], this molecule had a bioavailability of 87%. In series [5], the Tmax amounted to 2.7 h. Also, the Kp in series [6] amounted to 2.2.

The record behind these values is ChEMBL document CHEMBL1208692, “A specific and direct comparison of the trifluoromethyl and pentafluoro sulfanyl groups on the selective dopamine D(3) antagonist 3-(3-{[4-methyl-5-(4-methyl-1,3-oxazol-5-yl)-4H-1,2,4-triazol-3-yl]thio}propyl)-1-phenyl-3-azabicyclo[3.1.0]hexane template” (Bioorg Med Chem Lett, 2010).
